Assay results reported in PMC4168900, “Expeditive synthesis of trithiotriazine-cored glycoclusters and inhibition of Pseudomonas aeruginosa biofilm formation” (Beilstein Journal of Organic Chemistry, 2014).

Tests used:
[1] = tested on: PAO1; assay: PAO1 growth inhibition control test; format: cell-based, Pseudomonas aeruginosa; settings: PAO1 in the presence of clusters
Protocol: To check that differences observed were not due to bacterial growth defect in the presence of clusters, a growth inhibition control experiment was performed (Figure 4C). […] A) Biofilm growth assay in LB medium. B) Statistical analysis (above, n = 5, duplicate UV measurements) of ethanol-solubilized biofilm recovered from each well (below). C) PAO1 growth inhibition control test.

[2] = molecular target: T1, lecA (Pseudomonas aeruginosa, UniProt Q05097); assay: Isothermal titration calorimetry (ITC), binding to lecA; settings: for ΔG / ΔH / β/N (improvement in affinity relative to the methyl glycoside, divided by the valency) / −TΔS / n (stoichiometry): T = 298 K; for n (stoichiometry): glycocluster ligands per monomer of lectin
T1 sequence (Q05097 2-122): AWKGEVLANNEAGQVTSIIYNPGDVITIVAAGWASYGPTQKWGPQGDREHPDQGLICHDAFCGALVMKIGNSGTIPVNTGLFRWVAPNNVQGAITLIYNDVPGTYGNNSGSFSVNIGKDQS
Protocol: The affinities of the designed glycoconjugates with lecA and lecB were determined by isothermal titration calorimetry (ITC) by addition of the ligands to a solution of lectin (Figure 3). Dissociation constants (Kd) and thermodynamic parameters (ΔG, ΔH, −TΔS) are listed in Table 1, together with the experimental binding stoichiometry (n), defined as the number of glycocluster ligands per monomer of lectin. […]
Isothermal titration microcalorimetry (ITC):
Recombinant lyophilized lecA and lecB were dissolved in buffer (100 mM Tris-HCl pH 7.5, 6 µM CaCl2,) and degassed. The same procedure was applied for lecB with a different buffer (20mM Tris-HCl pH 7.54 100mM NaCl 100µM CaCl2). Protein concentration varied between 50 and 120 µM depending on the ligand affinity. Carbohydrate ligands were dissolved directly into the same buffer, degassed, and placed in the injection syringe. ITC was performed using a VP-ITC MicroCalorimeter from MicroCal Incorporated. lecA was placed into the 1.4478 mL sample cell, at 25°C. Titration was performed with 10 µL injections of carbohydrate ligands every 300 s. Data were fitted using MicroCal Origin 7 software according to standard procedures. Fitted data yielded the stoichiometry (n), the association constant (Ka), and the enthalpy of binding (∆H). Other thermodynamic parameters (i.e., changes in free energy ∆G and entropy ∆S) were calculated from the equation ∆G = ∆H - T∆S = -[…] in which T is the absolute […]
temperature and R = 8.314 Jmol-1K-1. […]

[3] = molecular target: T1, lecA; assay: Dynamic light scattering (DLS), aggregation of lecA
Protocol: Dynamic light scattering experiments (DLS) were performed on the trivalent and divalent galactose-substituted clusters 1, 16 and 17, as well as the glucose-substituted cluster 13 as a negative control. […] The inability of these systems to efficiently aggregate lectins is in stark contrast to the hexavalent benzene cluster, which may be attributed to differences in rigidity and hydrophobicity between the two systems. It thus appears that the direct diaryl sulfide bridge presents a more optimal degree of semi-rigidity.
Figure 2 Dynamic light scattering experiments of bis-D-galactosyl proparyl cluster 16 with lecA. Distribution by mass for lecA + buffer (left) and lecA + 16 (200 μM, right) at 3 minute intervals. Additional experiments can be found in Supporting Information File 1.

[4] = tested on: PAO1 biofilm; assay: P. aeruginosa adherence / biofilm formation assay, crystal violet staining; format: cell-based, Pseudomonas aeruginosa; settings: 5 mM cluster, 24 h, 30 °C, LB medium, compared to glucose-bearing cluster 13 or absence of cluster
Protocol: The P. aeruginosa adherence assay was performed in 24 well microplates. Biofilms were obtained after 24 h of incubation at 30 °C in LB medium alone or in the presence or galactose, fucose, or glucose (control)-substituted trivalent clusters and stained with crystal violet (CV).
All reagents were commercial and used without further purification. Solvents were distilled from CaH2.
(§1) Reactions under microwave activation were performed using a Biotage Initiator system. NMR spectra were recorded at 293 K, unless otherwise stated, using a 300 or 400 or 500 MHz spectrometer.
Shifts are referenced relative to deuterated solvent residual peaks. Complete signal assignments from 1D and 2D NMR spectroscopy were based on COSY, HSQC, and HMBC correlations. High-resolution (HR-ESI- QToF) mass spectra were recorded using a Bruker MicroToF-Q II XL spectrometer. Thin-layer chromatography (TLC) was carried out on aluminum sheets coated with silica gel 60 F254 (Merck). […] IR spectra were recorded on a Shimadzu FTIR-8400S IR spectrophotometer and n are expressed in cm-1. NMR spectra were recorded on a Bruker DRX (1H at 300 or 400 MHz, 13C at 75 or 100 MHz) or on a Bruker AV500 spectrometer (1H at 500 MHz, 13C at 125 MHz). HRMS were recorded in electrospray ionization mode on a micro q-tof Micromass in strument (3000 V) with an internal lock mass (H3PO4) and an external lock mass (Leu- […]

[5] = molecular target: lecB (Pseudomonas aeruginosa, UniProt Q9HYN5); assay: Isothermal titration calorimetry (ITC), binding to lecB
lecB, sequence (Q9HYN5 entry or part of it): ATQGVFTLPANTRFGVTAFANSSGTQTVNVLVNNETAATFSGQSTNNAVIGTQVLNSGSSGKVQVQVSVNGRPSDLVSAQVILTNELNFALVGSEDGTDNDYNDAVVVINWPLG
Protocol: The affinities of the designed glycoconjugates with lecA and lecB were determined by isothermal titration calorimetry (ITC) by addition of the ligands to a solution of lectin (Figure 3). Dissociation constants (Kd) and thermodynamic parameters (ΔG, ΔH, −TΔS) are listed in Table 1, together with the experimental binding stoichiometry (n), defined as the number of glycocluster ligands per monomer of lectin.
The observed β/N values in Table 1, which reflect the relative affinity per unit sugar, are 29 for the trivalent cluster and in the range of 12 for the bivalent clusters. These values most likely reflect sub-site binding by the heterocyclic rings. […] These clusters thus represent a readily accessible, highly soluble, and convenient tool for the investigation of the role of lecA and lecB in the formation of biofilms by Pseudomonas aeruginosa. […]
as §1
Shifts are referenced relative to deuterated solvent residual peaks. […] High-resolution (HR-ESI- QToF) mass spectra were recorded using a Bruker MicroToF-Q II XL spectrometer. […] IR spectra were recorded on a Shimadzu FTIR-8400S IR spectrophotometer and n are expressed in cm-1. […]

Row | Compound | bacterial growth defect [1] | Kd [2] [µM] | ΔG ([2]; ITC) [kcal/mol] | ΔH ([2]; ITC) [kcal/mol] | β/N (improvement in affinity relative to the methyl glycoside, divided by the valency) ([2]; ITC) | −TΔS ([2]; ITC) [kcal/mol] | n (stoichiometry) ([2]; ITC) | aggregation of lecA [3] | biofilm formation [4] | affinity for the lectin (in words) ([2]; ITC, negative control) | Kd [5] [µM]
1 | OC[C@H]1O[C@@H](n2cc(CSc3nc(SCc4cn([C@@H]5O[C@H](CO)[C@H](O)[C@H](O)[C@H]5O)nn4)nc(SCc4cn([C@@H]5O[C@H](CO)[C@H](O)[C@H](O)[C@H]5O)nn4)n3)nn2)[C@H](O)[C@@H](O)[C@H]1O [compound 1, 2,4,6-tris(1-(β-D-galactopyranosyl)triazol-4-ylmethylthio)-1,3,5-triazine] | No growth defect was observed | 1.09 | -8.15 | -15.8 | 29 | 7.62 | 0.31 | only the divalent bis-D-Gal propargyl cluster 16 induces rapid aggregation of lecA | statistically significant reduction in biofilm formation |  | 
2 | OC[C@H]1O[C@@H](n2cc(CSc3nc(SCc4cn([C@@H]5O[C@H](CO)[C@@H](O)[C@H](O)[C@H]5O)nn4)nc(SCc4cn([C@@H]5O[C@H](CO)[C@@H](O)[C@H](O)[C@H]5O)nn4)n3)nn2)[C@H](O)[C@@H](O)[C@@H]1O [compound 13, 2,4,6-tris(1-(β-D-glucopyranosyl)triazol-4-ylmethylthio)-1,3,5-triazine] | No growth defect was observed |  | <0 |  |  |  |  | only the divalent bis-D-Gal propargyl cluster 16 induces rapid aggregation of lecA |  | no affinity for the lectin | 
3 | C[C@@H]1O[C@H](n2cc(CSc3nc(SCc4cn([C@H]5O[C@@H](C)[C@@H](O)[C@@H](O)[C@@H]5O)nn4)nc(SCc4cn([C@H]5O[C@@H](C)[C@@H](O)[C@@H](O)[C@@H]5O)nn4)n3)nn2)[C@@H](O)[C@H](O)[C@@H]1O [compound 14, 2,4,6-tris(1-(β-L-fucopyranosyl)triazol-4-ylmethylthio)-1,3,5-triazine] | No growth defect was observed |  |  |  |  |  |  |  | statistically significant reduction in biofilm formation |  | 50
4 | C#CCSc1nc(SCc2cn([C@@H]3O[C@H](CO)[C@H](O)[C@H](O)[C@H]3O)nn2)nc(SCc2cn([C@@H]3O[C@H](CO)[C@H](O)[C@H](O)[C@H]3O)nn2)n1 [compound 16, 2,4-bis(1-(β-D-galactopyranosyl)triazol-4-ylmethylthio)-6-(prop-2-ynylthio)-1,3,5-triazine] |  | 4.4 | -7.29 | -11.4 | 11 | 4.11 | 0.79 | induces rapid aggregation of lecA |  |  | 
5 | OC[C@H]1O[C@@H](n2cc(CSc3nc(SCc4cn([C@@H]5O[C@H](CO)[C@H](O)[C@H](O)[C@H]5O)nn4)nc(SCc4cn([C@@H]5O[C@H](CO)[C@@H](O)[C@H](O)[C@H]5O)nn4)n3)nn2)[C@H](O)[C@@H](O)[C@H]1O [compound 17, 2,4-bis(1-(β-D-galactopyranosyl)triazol-4-ylmethylthio)-6-(1-(β-D-glucopyranosyl)triazol-4-ylmethylthio)-1,3,5-triazine] |  | 3.4 | -7.48 | -12.2 | 14 | 4.71 | 0.54 | only the divalent bis-D-Gal propargyl cluster 16 induces rapid aggregation of lecA |  |  | 
6 | CO[C@@H]1O[C@H](CO)[C@H](O)[C@H](O)[C@H]1O [β-D-GalOMe, methyl β-D-galactoside] |  |  |  |  | 1 |  |  |  |  |  | 
